Source: US20190388362A1, “PHARMACEUTICAL COMPOSITION FOR TREATING ORAL PRECANCER AND METHOD FOR PREDICTING OR DIAGNOSING ORAL PRECANCER OR ORAL CANCER” (MET Life Sciences Co., Ltd., priority 2017, published 2019)
One block for each compound: values may come before it.

What was measured:
recombinant GSK3β = recombinant GSK3β (Homo sapiens, UniProt P49841); experiment: Surface plasma resonance (SPR) analysis on immobilized recombinant GSK3β; assay type: binding
Experimental: Surface plasma resonance (SPR) analysis was performed to confirm whether niclosamide directly binds to GSK3. SPR was conducted using the ProteOn™ XPR36 Protein Interaction Array system (Bio-Rad Laboratories, Inc., CA, USA), and purified recombinant GSK3β, was immobilized to a ProteOn GLH sensor chip. Niclosamide or 19-mer wild type Axin peptide or mutant peptide (VEPQKAAEEAIHRAEAVQR, mutation underlined) were diluted by phosphate-buffered saline+Tween 20+1% DMSO at different concentrations and then flowed over the chip at a rate of 100 μl/min. The results thereof were analyzed by ProteOn Manager Software 2.0 using the standard Langmuir models for fitting kinetic data. The rate of complex formation was represented by the association constant (ka, in the unit of M-1s-1), and the rate of complex decay was represented by the dissociation constant (kd, in the unit of s-1), as given by Equation 1 below.
A high-affinity interaction is represented by a low dissociation constant, and rapid recognition and binding with interactants (rapid “on rate,” or high ka) and the stability of complex formation (slow “off rate,” or low kd) are as shown in the following equation: KD=kd/ka.

Axin2 [1] = experiment: Axin2 expression in cell lysate of colorectal cancer cells treated with HCA and BCA; assay type: cell-based; conditions: at an nM level
Text: (§1) According to the previous research results, it has been known that 2′-Hydroxycinnamaldehyde (HCA), which is a main component of cinnamon, and a derivative thereof, i.e., 2′-benzoyloxycinnamaldehyde (BCA) inhibit cancer metastasis through Snail expression inhibition by inhibiting LRP-1 receptors (Hwang H et al., J Neuroimmunol 2011, 230, 52-64; Ismail I A, et al., Breast Cancer Res Treat, 137, 697-708, 2013). Thus, to confirm whether HCA and BCA are capable of inhibiting Axin2 expression and Snail expression, colorectal cancer cells were treated with HCA and BCA, and it was examined whether Axin2 and Snail were expressed in a cell lysate. As HCA and BCA, those separated from cinnamon bark and purified were used (Hwang H et al., J Neuroimmunol 2011, 230, 52-64). As a result, as illustrated in FIGS. 11A and 11B, it was confirmed that HCA and BCA inhibited the expression of Axin2 and Snail at an nM level.

Snail [2] = experiment: Snail expression in cell lysate of colorectal cancer cells treated with HCA and BCA; assay type: cell-based; conditions: at an nM level
Text: as §1

Axin2 [3] = experiment: Axin2 expression in colorectal cancer cell lines treated with niclosamide; assay type: cell-based; conditions: HCT116, SW480, SW620 and DLD-1 cells; niclosamide at an nM level
Axin2 [4] = experiment: Western blotting of Axin2 in oral cancer and oral precancer cell lines; assay type: cell-based; conditions: YD-10B, KB and D38 cell lines, 16 hours
Text: (§2) The expression of Axin2 and Snail was confirmed in a cell lysate after treating YD-10B (CVCL-8929) and KB (CVC_L 0372), which are oral cancer cell lines, and D38, which is an oral precancer cell line (McGregor F. et al., CANCER RESEARCH 62, 4757-4766, 2002), with various concentrations of niclosamide by using the same method of Example 5.
(§3) For the YD-10B and KB cell lines, a RPMI1640 medium containing 10% FBS and 1% penicillin/streptomycin was used. For the oral precancer cell line D38, a DMEM: F12 (3:1) medium containing 10% FBS and 1% penicillin/streptomycin was used. The respective cells were treated with niclosamide at the indicated concentration for 16 hours and the expression of Axin2 and Snail was analyzed through western blotting.

[5] = tested on: oral precancer cell line D38; experiment: 3D culture model on collagen sheet, D38; assay type: cell-based; conditions: 0.125 μM niclosamide
Experimental: To confirm the niclosamide treatment effect in a 3D culture model, the results of treatment with 0.125 μM niclosamide when the oral precancer cell line D38 was cultured on a collagen sheet are illustrated in FIG. 17, in part A thereof.

oral cancer cells YD10B [6] = experiment: YD10B oral cancer cell transplant in immunodeficient mice; assay type: in vivo; conditions: 200 mg/kg (mpk), orally, daily; Balb/c athymic nude mice with YD10B cells
Text: To confirm the effect of niclosamide on the inhibition of oral cancer in an animal model, oral cancer cells YD10B (3×10^6 cells) were transplanted to immunodeficient mice (Balb/c, athymic nude mice, NaraBiotech), the mice were divided into two groups, and then niclosamide was orally administered to the two groups daily.

[7] = biological target: T1, recombinant GSK3 beta / Axin peptide interaction (Homo sapiens, UniProt P49841); experiment: Competitive inhibition of recombinant GSK3 binding to FITC-conjugated 19-mer Axin peptide (bead fluorescence); conditions: in proportionate to the concentration of niclosamide added; 2 hours
T1 construct: made in house; host or cells: Sf9 insect cells (GSK3 beta); peptide chemically synthesized (Peptron)
Text: In the previously reported results of analyzing the structure of Axin-GSK3 binding, accumulation of the hydrophobic residues of Axin α-helix into a hydrophobic groove formed by the C-terminal loop of GSK3 is disclosed (Dajani R et al., EMBO J. 22:494-501, 2003), and thus the inventors of the present invention hypothesized that niclosamide would bind to the hydrophobic groove of GSK3 and interfere with the function of Axin. To verify this, in vitro analysis was designed to identify competitive inhibition of recombinant GSK3 binding to 19-mer FITC-conjugated Axin peptides by niclosamide.
Hig-tagged recombinant GSK3 beta was obtained from sf9 insect cells using a known method (Lee D G, et al. Nat Commun. 5:4423, 2014). The FITC-conjugated 19-mer Axin peptide (Axin1, 383-401, VEPQKFAEELIHRLEAVQR), which is known to bind to GSK3 as an amphipathic α-helix, was chemically synthesized (Peptron). To confirm competitive binding between the synthesized Axin peptide and niclosamide, His-tagged recombinant GSK3 and Ni—Ti beads were treated with niclosamide for 2 hours, and then washed three times with PBS, and quantitative fluorescence measurement was performed using Ni—Ti beads. Fluorescence intensity was represented in proportionate to the fluorescence intensity of a negative control from the 3rd experiment.

[8] = tested on: oral precancer cell line D38; experiment: Trypan exclusion assay for apoptosis; assay type: cell-based; conditions: D38, 72 hours, concentration-dependent
Experimental: The oral precancer cell line D38 was treated with various concentrations of niclosamide for 72 hours and apoptosis was confirmed through a trypan exclusion assay.

oral cancer cells YD10B [9] = experiment: 3D culture model, YD10B; assay type: cell-based; conditions: YD10B three-dimensionally cultured, 0.125 μM niclosamide
[10] = tested on: oral precancer cell line D38; experiment: Cell growth by counting cells in real time, D38; assay type: cell-based; conditions: as the concentration of niclosamide was increased
Experimental: (§4) The oral cancer cell lines YD-10B and KB and the oral precancer cell line D38 were treated with various concentrations of niclosamide, and cell growth was measured by counting cells in real time.

YD-10B cell line = experiment: Migration assay (crystal violet), YD-10B; assay type: cell-based; conditions: niclosamide-concentration-dependent
Experimental: (§5) Cell migration is regulated by Axin2 and Snail. In the present example, the YD-10B cell line, the KB cell line, and the oral precancer cell line D38 were treated with niclosamide, a migration assay was performed thereon, and then the cells were stained with crystal violet and cell migration values were measured.

[11] = tested on: oral precancer cell line D38; experiment: Migration assay (crystal violet), D38; assay type: cell-based; conditions: niclosamide-concentration-dependent
Experimental: as §5

Snail [12] = experiment: Western blotting of Snail in oral cancer and oral precancer cell lines; assay type: cell-based; conditions: YD-10B, KB and D38 cell lines, 16 hours
Text: as §2, §3

[13] = tested on: oral cancer cell line YD10B; experiment: Soft agar colony formation assay, YD10B; assay type: cell-based; conditions: 3 weeks, according to niclosamide treatment concentration
Experimental: (§6) The oral precancer cell line D38 and the oral cancer cell line YD10B were cultured on soft agar plates containing various concentrations of niclosamide. The corresponding concentration of niclosamide was administered while the respective cells were cultured on the soft agar plates for 3 weeks.

Snail [14] = experiment: Snail expression in colorectal cancer cell lines treated with niclosamide; assay type: cell-based; conditions: HCT116, SW480, SW620 and DLD-1 cells; niclosamide at an nM level
KB cell line = experiment: Migration assay (crystal violet), KB; assay type: cell-based; conditions: niclosamide-concentration-dependent
Experimental: as §5

oral cancer cell line KB = experiment: Cell growth by counting cells in real time, KB; assay type: cell-based; conditions: as the concentration of niclosamide was increased
Experimental: as §4

Axin-GSK3 complex = biological target: T2, Axin-GSK3 complex (Homo sapiens, UniProt P49841); experiment: Immunoprecipitation of His-tagged Axin2 from MCF-7 cell lysate, immunoblot for GSK3; assay type: binding; conditions: MCF-7 cells with His-tagged Axin2, Triton X-100 lysate, Ni-Ti beads
T2 construct: expressed in transfected cells; host or cells: MCF-7 (Axin2 transfected, doxycycline-induced; GSK3 endogenous)
Experimental: To confirm whether niclosamide is capable of inhibiting Axin-GSK3 interaction, cell lysates with full-length Axin2 were examined to perform immunoprecipitation experiments in the presence or absence of niclosamide.
An immunoprecipitation assay was performed as follows (Yook J I, et al. Nat Cell Biol. 8:1398-1406, 2006).
A doxycycline-induced His-tagged Axin2 expression vector was transfected into MCF-7 cells (ATCC, American Type Culture collection) and cultured, and a Triton X-100 lysate of whole cells was treated with Ni—Ti beads (Invitrogen) and niclosamide at each concentration to allow a reaction to occur therebetween. Proteins recovered in the beads were subjected to SDS-PAGE, followed by immunoblot analysis for GSK3, and a 1/20 volume of a control was added thereto.

[15] = tested on: oral cancer cell line YD-10B; experiment: Cell growth by counting cells in real time, YD-10B; assay type: cell-based; conditions: as the concentration of niclosamide was increased
Experimental: as §4

[16] = tested on: oral precancer cell line D38; experiment: Soft agar colony formation assay, D38; assay type: cell-based; conditions: 3 weeks, according to niclosamide treatment concentration
Experimental: as §6

Chain of recombinant GSK3β (P49841 whole entry): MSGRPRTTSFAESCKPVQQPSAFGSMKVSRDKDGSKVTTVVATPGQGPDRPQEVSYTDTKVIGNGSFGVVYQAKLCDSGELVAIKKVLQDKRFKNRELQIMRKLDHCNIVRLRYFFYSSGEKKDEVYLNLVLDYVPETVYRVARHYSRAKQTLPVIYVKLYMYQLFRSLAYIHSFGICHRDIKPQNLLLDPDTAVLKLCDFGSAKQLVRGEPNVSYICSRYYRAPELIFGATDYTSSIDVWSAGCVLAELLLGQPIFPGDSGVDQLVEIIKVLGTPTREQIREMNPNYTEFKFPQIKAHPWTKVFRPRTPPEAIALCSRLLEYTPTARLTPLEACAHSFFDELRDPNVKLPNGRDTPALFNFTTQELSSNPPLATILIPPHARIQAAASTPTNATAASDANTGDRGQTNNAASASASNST
T1 sequence (P49841 whole entry): as above
T2 sequence (P49841 whole entry, one chain of several): as the sequence (P49841 whole entry) above

Compound: O=CC=Cc1ccccc1OC(=O)c1ccccc1 [BCA, 2′-benzoyloxycinnamaldehyde]
- expression of Axin2 (Axin2 [1]): inhibited
- expression of Snail (Snail [2]): inhibited

Compound: O=CC=Cc1ccccc1O [HCA, 2′-Hydroxycinnamaldehyde]
- expression of Axin2 (Axin2 [1]): inhibited
- expression of Snail (Snail [2]): inhibited

Further lines, with some results ahead:

- binding to GSK3 protein immobilized on a sensor surface (recombinant GSK3β; up to 100 μM): unable to bind
Compound: Mutant Axin peptide: mutant 19-mer Axin peptide VEPQKAAEEAIHRAEAVQR, mutations on hydrophobic residues

- direct binding to GSK3 (recombinant GSK3β): directly bound
Compound: CC[C@H](C)[C@H](NC(=O)[C@H](CC(C)C)NC(=O)[C@H](CCC(=O)O)NC(=O)[C@H](CCC(=O)O)NC(=O)[C@H](C)NC(=O)[C@H](Cc1ccccc1)NC(=O)[C@H](CCCCN)NC(=O)[C@H](CCC(N)=O)NC(=O)[C@@H]1CCCN1C(=O)[C@H](CCC(=O)O)NC(=O)[C@@H](N)C(C)C)C(=O)N[C@@H](Cc1c[nH]cn1)C(=O)N[C@@H](CCCNC(=N)N)C(=O)N[C@@H](CC(C)C)C(=O)N[C@@H](CCC(=O)O)C(=O)N[C@@H](C)C(=O)N[C@H](C(=O)N[C@@H](CCC(N)=O)C(=O)N[C@@H](CCCNC(=N)N)C(=O)O)C(C)C [wild type Axin peptide]

- interaction between the recombinant GSK3 and the synthesized Axin peptide [7]: inhibited
- direct binding to GSK3 (recombinant GSK3β): directly bound
- Kd (recombinant GSK3β; GSK3β immobilized on sensor chip, read-out: equilibrium dissociation constant KD): 34 µM
- GSK3 that binds to Axin2 in a total cell lysate (Axin-GSK3 complex): reduced
Compound: O=C(Nc1ccc([N+](=O)[O-])cc1Cl)c1cc(Cl)ccc1O [niclosamide]
- Axin2 expression (Axin2 [3]): decreased
- expression of Axin2 (Axin2 [4]): inhibited
- cell density [5]: reduced
- keratinocytic differentiation [5]: induced
- basal membrane ([5]; destroyed in control): smooth basal membrane was observed
- volume of tumors (oral cancer cells YD10B [6]): reduced
- apoptosis [8]: occurred
- invasiveness of cancer cells (oral cancer cells YD10B [9]): rapidly reduced
- cell growth [10]: inhibited
- cell migration (YD-10B cell line): inhibited
- cell migration [11]: inhibited
- expression of Snail (Snail [12]): inhibited
- colony formation [13]: inhibited
- Snail expression (Snail [14]): decreased
- cell migration (KB cell line): inhibited
- cell growth (oral cancer cell line KB): inhibited
- cell growth [15]: inhibited
- colony formation [16]: inhibited
